{
  "source": "paper PMC3376645",
  "about": "(Chemical Communications (Cambridge, England), 2012)",
  "key": {"[1]": {"conditions": "approximate; stated without experiment or reference; cited from earlier work"}, "thrombin": {"tested_on": "thrombin", "experiment": "LC-MS analysis of aliquots to determine conversion", "format": "biochemical", "conditions": "1 mM PMSF"}, "[2]": {"experiment": "Gelation screening in buffer by heat/cool method", "format": "physicochemical", "conditions": "buffer 100 mM PBS, 10% DMSO, pH = 7.2"}},
  "data": [
    {"compound": "Nc1ccc(C(=O)O)cc1", "note": "[PABA, p-aminobenzoic acid]", "values": [
      {"measurement": "pKa", "setting": "[1]", "result": "~5"}
    ]},
    {"compound": "O=S(=O)(F)Cc1ccccc1", "note": "[PMSF]", "values": [
      {"measurement": "effect of thrombin inhibitor on enzymatic cleavage of compound 4", "setting": "thrombin", "result": "decrease in the rate of enzymatic cleavage"}
    ]},
    {"compound": "PABA-F5Phe-NH2 [Compound 1]", "values": [
      {"measurement": "critical gel concentration (cgc)", "setting": "[2]", "result": 54, "unit": "mM"}
    ]}
  ]
}
